Values joined by “and” are separate entries in the source; they are usually repeats but may differ in a detail not shown here. Equal entries are not always repeated. Where two headings read alike, the source gives them in different places.
Columns and labels:
MV-4-11 = assay: Proliferation assay (spheroid assay) MV-4-11; assay type: cell-based, human
Protocol: (§1) The anti-proliferative effect of menin/MLL protein/protein interaction inhibitor test compounds was assessed in human leukemia cell lines. The cell lines MV-4-11 and MOLM14 harbor MLL translocations and express the MLL fusion proteins MLL-AF4 and MLL-AF9, respectively, as well as the wildtype protein from the second allele. […] K562 and KG1 were used as a control cell lines containing two MLL wildtype alleles in order to exclude compounds that display general cytotoxic effects.
(§2) MV-4-11 and MOLM14 were cultured in RPMI-1640 (Sigma Aldrich) supplemented with 10% fetal bovine serum (HyClone), 2 mM L-glutamine (Sigma Aldrich) and 50 μg/ml gentamycin (Gibco). K562 were propagated in RPMI-1640 (Sigma Aldrich) supplemented with 20% fetal bovine serum (HyClone), 2 mM L-glutamine (Sigma Aldrich) and 50 μg/ml gentamycin (Gibco). KG1 were cultured in Iscove's MDM (Gibco) supplemented with 20% fetal bovine serum (HyClone), 2 mM L-glutamine (Sigma Aldrich) and 50 μg/ml gentamycin (Gibco).
(§3) In order to assess the anti-proliferative effects, 1,500 MV-4-11, 300 MOLM14, 750 K562 or 1,300 KG1 cells were seeded in 200 μl media per well in 96-well round bottom, ultra-low attachment plates (Costar, catalogue number 7007). Cell seeding numbers were chosen based on growth curves to ensure linear growth throughout the experiment. Test compounds were added at different concentrations and the DMSO content was normalized to 0.3%. Cells were incubated for 8 d at 37° C. and 5% CO2. Spheroid like growth was monitored in real-time by live-cell imaging (IncuCyteZOOM, Essenbio, 4× objective) acquiring one image every four hours for 8 d. Confluence (%) as a measure of spheroid size was determined using an integrated analysis tool.
(§4) In order to determine the cumulative effect of the test compounds over time, the area under the curve (AUC) in a plot of confluence against time was calculated. Confluence at the beginning of the experiment (t=0) was used as baseline for the AUC calculation.
(§5) Absolute IC50 values were calculated according to the following procedure: % Control=(AUC sample/AUC control)*100 AUC control=mean AUC of control values (cells without compound/DMSO as vehicle control)
(§6) A non-linear curve fit was applied using the least squares (ordinary) fit method to the plot of % control versus compound concentration. Based on this, the absolute IC50 value (half maximal inhibitory concentration of the test compound causing an anti-proliferative effect of 50% relative to the vehicle control) was calculated.

MOLM14 = assay: Proliferation assay (spheroid assay) MOLM14; assay type: cell-based, human
Protocol: as §1, §2, §3, §4, §5, §6

menin = target: T1, menin (Homo sapiens, UniProt O00255, T541A); assay: Menin/MLL fluorescence polarization (FP) assay; assay type: binding
T1 sequence (O00255 with tags, fused parts or gaps T541A): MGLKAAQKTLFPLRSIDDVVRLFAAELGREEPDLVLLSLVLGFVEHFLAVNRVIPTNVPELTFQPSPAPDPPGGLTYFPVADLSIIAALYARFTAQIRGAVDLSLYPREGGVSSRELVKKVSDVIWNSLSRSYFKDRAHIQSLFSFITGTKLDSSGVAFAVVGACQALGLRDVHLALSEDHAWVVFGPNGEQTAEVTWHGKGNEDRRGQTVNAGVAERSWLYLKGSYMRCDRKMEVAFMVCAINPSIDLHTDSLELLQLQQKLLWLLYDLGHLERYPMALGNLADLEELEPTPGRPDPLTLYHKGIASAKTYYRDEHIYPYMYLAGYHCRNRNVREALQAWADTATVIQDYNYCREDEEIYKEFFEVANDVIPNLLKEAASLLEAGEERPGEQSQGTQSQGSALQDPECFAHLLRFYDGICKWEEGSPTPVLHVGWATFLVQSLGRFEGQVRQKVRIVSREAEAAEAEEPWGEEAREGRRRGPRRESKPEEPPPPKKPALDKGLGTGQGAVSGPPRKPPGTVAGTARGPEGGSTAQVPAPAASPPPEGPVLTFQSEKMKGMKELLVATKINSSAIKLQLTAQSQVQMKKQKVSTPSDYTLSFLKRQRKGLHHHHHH
Protocol: 1) Menin/MLL Fluorescence Polarization Assay
To a non-surface binding, black 384-well microtiter plate was added 50 nL 160× test compound in DMSO and 4 μL 2× menin in assay buffer (40 mM Tris·HCl, pH 7.5, 50 mM NaCl, 1 mM DTT and 0.001% Tween 20). After incubation of test compound and menin for 10 min at ambient temperature, 4 μL 2×FITC-MBM1 peptide (FITC-β-alanine-SARWRFPARPGT-NH2 (SEQ ID NO: 2)) in assay buffer was added, the microtiter plate centrifuged at 1000 rpm for 1 min and the assay mixtures incubated for 15 min at ambient temperature. The relative amount of menin·FITC-MBM1 complex present in an assay mixture is determined by measuring the fluorescence polarization (FP) of the FITC label with a BMG Pherastar plate reader (ex. 485 nm/em. 520 nm) at ambient temperature. The final concentrations of reagents in the binding assay are 100 nM menin, 5 nM FITC-MBM1 peptide and 0.625% DMSO in assay buffer. Dose-response titrations of test compounds are conducted using an 11 point, three-fold serial dilution scheme, starting at 31 μM.
Compound potencies were determined by first calculating % inhibition at each compound concentration according to equation 1: % inhibition=((HC−LC)−(FP^compound−LC))/(HC−LC))*100 (Eqn 1)
Where LC and HC are the FP values of the assay in the presence or absence of a saturating concentration of a compound that competes with FITC-MBM1 for binding to menin, and FP^compound is the measured FP value in the presence of the test compound. HC and LC FP values represent an average of at least 16 replicates per plate. […] 2) Proliferation Assay

[1] = Homo sapiens, MV4-11, MV-4-11, averaged values, read-out: Spheroid assay MV-4-11 (IC50 (μM))
[2] = Homo sapiens, MOLM-14, MOLM14, averaged values, read-out: Spheroid assay MOLM14 (IC50 (μM))
[3] = Homo sapiens, MOLM-14, 192 h, MOLM14 (MLL-AF9), 8 d, absolute IC50 from AUC of confluence, individual measurements (not averaged), read-out: (2) Spheroid assay MOLM14 (IC50 (μM))
[4] = averaged values over all measurements, read-out: Menin FP assay (IC50 (μM))
[5] = 100 nM menin, 5 nM FITC-MBM1 peptide, individual measurements (not averaged), read-out: (1) Menin FP assay (IC50 (μM))
[6] = MOLM14 (MLL-AF9), 8 d, absolute IC50 from AUC of confluence, individual measurements (not averaged), read-out: (2) Spheroid assay MOLM14 (IC50 (μM))

SMILES	IC50 (MV-4-11; [1]) [µM]	IC50 (MOLM14; [2]) [µM]	IC50 (menin; [4]) [µM]	other results
Cn1cc2c(n1)CCCC2N1CC2(CCN(c3ncnc4sc(CC(F)(F)F)cc34)C2)C1 (single isomer, unassigned) [Compound 137]	10.1	> 15	–	–
Cn1cc2c(n1)CCCC2N1CC2(CCN(c3ncnc4sc(CC(F)(F)F)cc34)C2)C1 (single isomer, unassigned) [Compound 138]	–	–	–	IC50 (MOLM14; [3]): 7 µM
Cc1ccc(CN2CC[C@@]3(CCN(c4ncnc5sc(CC(F)(F)F)cc45)C3)C2)cc1 (single isomer, unassigned) [Compound 289]	0.21	1.3	–	–
Cc1ccc(CN2CC[C@]3(CCN(c4ncnc5sc(CC(F)(F)F)cc45)C3)C2)cc1 (single isomer, unassigned) [Compound 290]	0.47	1.2	–	–
Cn1cc(CN2CC[C@@]3(CCN(c4ncnc5sc(CC(F)(F)F)cc45)C3)C2)cn1 (single isomer, unassigned) [Compound 295]	1.16	6.7	–	–
FC(F)(F)Cc1cc2c(N3CCC4(CN(Cc5ccnnc5)C4)C3)ncnc2s1 [Compound 4]	–	–	0.73	–
FC(F)(F)Cc1cc2c(N3CCC4(CN(Cc5cnc6ccccn56)C4)C3)ncnc2s1 [Compound 7]	–	–	0.73	–
FC(F)(F)Cc1cc2c(N3CCC4(CN(Cc5cnc(Cl)cn5)C4)C3)ncnc2s1 [Compound 8]	–	–	0.79	–
FC(F)(F)Cc1cc2c(N3CCC4(CN(Cc5ccncn5)C4)C3)ncnc2s1 [Compound 9]	–	–	0.84	–
FC(F)(F)Cc1cc2c(N3CCC4(CN(Cc5cncnc5)C4)C3)ncnc2s1 [Compound 10]	–	–	2.31	–
FC(F)(F)Cc1cc2c(N3CCC4(CN(Cc5cncc(Cl)n5)C4)C3)ncnc2s1 [Compound 11]	–	–	0.76	–
FC(F)(F)Cc1cc2c(N3CC4(CN(Cc5ccccc5)C4)C3)ncnc2s1 [Compound 14]	2.2	4.9	0.11	–
Cc1nc(N2CCCC3(CCN(Cc4ccccc4)C3)C2)c2cc(CC(F)(F)F)sc2n1 (centres unmarked) [Compound 19]	–	–	0.81	–
Cn1cncc1CN1CC2(CCN(c3ncnc4sc(CC(F)(F)F)cc34)C2)C1 [Compound 23]	–	–	0.95	–
OCCn1cccc1CN1CC2(CCN(c3ncnc4sc(CC(F)(F)F)cc34)C2)C1 [Compound 24]	9.1	> 15	0.49	–
FC(F)(F)Cc1cc2c(N3CCC4(CN(Cc5ccc[nH]5)C4)C3)ncnc2s1 [Compound 25]	3.8	7.2	0.31	–
FC(F)(F)Cc1cc2c(N3CC4(CC(OCc5ccccc5)C4)C3)ncnc2s1 [Compound 26]	10.4	> 15	0.16	–

SMILES	IC50 (MV-4-11; [1]) [µM]	IC50 (MOLM14; [2]) [µM]	IC50 (menin; [4]) [µM]	other results
Cn1cc(CN2CC3(C2)CN(c2ncnc4sc(CC(F)(F)F)cc24)C3)cn1 [Compound 28]	–	–	–	IC50 (menin; [5]): 0.517 µM; IC50 (MOLM14; [6]): 3.2 µM and > 15 µM
FC(F)(F)Cc1cc2c(N3CCC4(CN(Cc5cn[nH]c5)C4)C3)ncnc2s1 [Compound 29]	–	–	–	IC50 (menin; [5]): 0.346 µM; IC50 (MV-4-11; MV-4-11 (MLL-AF4), 8 d, absolute IC50 from AUC of confluence, individual measurements (not averaged), read-out: (2) Spheroid assay MV-4-11 (IC50 (μM))): 1.8 µM and > 15 µM and 9.9 µM; IC50 (MOLM14; [3]): 10.8 µM; IC50 (MOLM14; [6]): > 15 µM
Cn1cc(CN2CC3(CCN(c4ncnc5sc(CC(F)(F)F)cc45)C3)C2)cn1 [Compound 30]	9.2	> 15	0.53	–
[CH3][Ge]([CH3])([CH3])[CH2]N1CC2(CCN(c3ncnc4sc(CC(F)(F)F)cc34)C2)C1 [Compound 31]	–	–	0.087	–
Cn1ccc(CN2CC3(C2)CN(c2ncnc4sc(CC(F)(F)F)cc24)C3)n1 [Compound 34]	–	–	0.72	–
Cn1ccc(CN2CC3(CCN(c4ncnc5sc(CC(F)(F)F)cc45)C3)C2)n1 [Compound 35]	–	–	0.99	–
CC(C)n1cc(CN2CC3(CCN(c4ncnc5sc(CC(F)(F)F)cc45)C3)C2)cn1 [Compound 36]	–	–	0.4	–
FC(F)(F)Cc1cc2c(N3CC4(CN(Cc5cn[nH]c5)C4)C3)ncnc2s1 [Compound 40]	–	–	0.84	–
FC(F)(F)Cc1cc2c(N3CC4(CN(Cc5cc[nH]n5)C4)C3)ncnc2s1 [Compound 41]	–	–	0.63	–
CC(C)CN1CC2(C1)CN(c1ncnc3sc(CC(F)(F)F)cc13)C2 [Compound 44]	4.1	> 15	–	–
OCc1ccccc1CN1CC2(CCN(c3ncnc4sc(CC(F)(F)F)cc34)C2)C1 [Compound 57]	4.2	8.6	–	–
O=C(NCCO)C(c1ccccc1)N1CC2(CCN(c3ncnc4sc(CC(F)(F)F)cc34)C2)C1 (centres unmarked) [Compound 75]	–	–	2.36	–
CC(C1CCOCC1)N1CC2(CCN(c3ncnc4sc(CC(F)(F)F)cc34)C2)C1 (centres unmarked) [Compound 145]	1.7	7.3	–	–
Cn1cc(C(CN)N2CC3(CCN(c4ncnc5sc(CC(F)(F)F)cc45)C3)C2)cn1 (centres unmarked) [Compound 195]	–	–	1.07	–
Cn1cc([C@@H](C2CCNCC2)N2CC3(CCN(c4ncnc5sc(CC(F)(F)F)cc45)C3)C2)cn1 [Compound 201]	12.7	> 15	–	–
CCN1CC(C(C(C)C)N2CC3(CCN(c4ncnc5sc(CC(F)(F)F)cc45)C3)C2)C1 (centres unmarked) [Compound 303]	0.32	1.02	–	–

Source: patent US12084462B2, “Spiro bicyclic inhibitors of menin-MLL interaction” (Janssen Pharmaceutica NV, priority 2016, dated 2024)
